From patent publication US20250057748A1, “FORMULATIONS OF DIHYDROKAEMPFEROL” (DEBUT BIOTECHNOLOGY, INC., priority 2023, published 2025)

What was measured:
[1] = test system: Human dermal fibroblasts (hDF); experiment: Wound healing: fibroblast regrowth after insert removal, image analysis; format: cell-based; conditions: 0.003% DHK
Description: Human dermal fibroblasts (hDF) were plated in the presence of a growth-preventing insert. The insert was subsequently removed and regrowth measured by image analysis.

Loricrin = experiment: Skin barrier marker by flow cytometry in hDF; format: cell-based, Human; conditions: 0.003% DHK
Description: (§1) Human dermal fibroblasts (hDF) were treated with test article of interest. Barrier markers of interest were measured by flow cytometry.

Filaggrin = experiment: Skin barrier marker by flow cytometry in hDF; format: cell-based, Human; conditions: 0.003% DHK
Description: as §1

[2] = Venditti et al. 2013; Liang et al. 2020; cited from earlier work
Interleukin 6 (IL6) = experiment: Differential gene expression in keratinocytes; format: cell-based; conditions: normal human epidermal keratinocytes, 1% DHK
Description: (§2) Log 2fold changes are detailed in FIG. 4. Table 13, provided below, highlights certain examples of differential gene expression in normal human epidermal keratinocytes treated with compositions comprising 1% DHK.

Interleukin 24 (IL24) = experiment: Differential gene expression in keratinocytes; format: cell-based; conditions: normal human epidermal keratinocytes, 1% DHK
Description: as §2

[3] = test system: Tumor Necrosis Factor (TNF); experiment: Differential gene expression in keratinocytes; format: cell-based; conditions: normal human epidermal keratinocytes, 1% DHK
Description: as §2

[4] = test system: Fibroblast Growth Factor 2 (FGF2); experiment: Differential gene expression in keratinocytes; format: cell-based; conditions: normal human epidermal keratinocytes, 1% DHK
Description: as §2

[5] = test system: Vascular Endothelial Growth Factor A (VEGFA); experiment: Differential gene expression in keratinocytes; format: cell-based; conditions: normal human epidermal keratinocytes, 1% DHK
Description: as §2

[6] = test system: Transient Receptor Potential Cation Channel Subfamily (TRPV6); experiment: Differential gene expression in keratinocytes; format: cell-based; conditions: normal human epidermal keratinocytes, 1% DHK
Description: as §2

[7] = test system: C-X-C Motif Chemokine Ligand 1 (CXCL1); experiment: Differential gene expression in keratinocytes; format: cell-based; conditions: normal human epidermal keratinocytes, 1% DHK
Description: as §2

[8] = test system: C-X-C Motif Chemokine Ligand 2 (CXCL2); experiment: Differential gene expression in keratinocytes; format: cell-based; conditions: normal human epidermal keratinocytes, 1% DHK
Description: as §2

Thrombospondin 4 (THBS4) = experiment: Differential gene expression in keratinocytes; format: cell-based; conditions: normal human epidermal keratinocytes, 1% DHK
Description: as §2

[9] = Solubility of dihydrokaempferol in various solvents; format: physicochemical
Description: Table 1, provided below, provides solubility data for dihydrokaempferol in various solvents.

Sirtuin-1 = conditions: reduces oxidative stress and inflammatory response; Zhang et al. 2021; cited from earlier work
glycation = experiment: Glycation inhibition assay; format: biochemical
Description: The assay was conducted to evaluate the glycation inhibition activity of compositions comprising dihydrokaempferol.
Nonenzymatic glycation can occur when glucose reacts with proteins, forming a Schiff base intermediate that subsequently undergoes Amadori rearrangement to form glycosylated proteins, when they react with skin proteins to form Advanced Glycation End products (AGE). AGE formation can result in loss of skin elasticity and impaired cellular function. The glycation inhibition ability of a compound is measured by change in fluorescence at excitation/emission of 360 nm/420 nm relative to solvent control.

[10] = ABTS antioxidant assay (aqueous medium); format: biochemical
Description: The 2,2′-Azinobis [3-ethylbenzothiazoline-6-sulfonic acid]-diammonium salt (ABTS) antioxidant assay is designed to evaluate the antioxidant activity of compositions comprising dihydrokaempferol in an aqueous medium.
ABTS+ solution is generated as a free radical and used to measure relative ability of a compound to scavenge free radicals. Reduction of the absorbance at 734 nm was standardized to solvent control as an indication of ABTS+ scavenging.

[11] = DPPH antioxidant activity assay (organic medium); format: biochemical
Description: The 2,2-diphenyl-1-picrylhydrazyl (DPPH) antioxidant assay is designed to evaluate the antioxidant activity of compositions comprising dihydrokaempferol in an organic medium. 2,2-diphenyl-1-picrylhydrazyl (DPPH) is a stable free radical used to evaluate free radical scavenging capacity of a material. In the presence of an antioxidant DPPH is reduced, resulting in the formation of a colorless solution. Reduction of absorbance at 517 nm is standardized to solvent control as an indication of DPPH scavenging.

[12] = mice; Liang et al. 2020; cited from earlier work
[13] = molecular target: T1, human neutrophil elastase (Homo sapiens, UniProt P08246); experiment: Elastase enzyme inhibition; format: biochemical
T1 sequence (P08246 30-267): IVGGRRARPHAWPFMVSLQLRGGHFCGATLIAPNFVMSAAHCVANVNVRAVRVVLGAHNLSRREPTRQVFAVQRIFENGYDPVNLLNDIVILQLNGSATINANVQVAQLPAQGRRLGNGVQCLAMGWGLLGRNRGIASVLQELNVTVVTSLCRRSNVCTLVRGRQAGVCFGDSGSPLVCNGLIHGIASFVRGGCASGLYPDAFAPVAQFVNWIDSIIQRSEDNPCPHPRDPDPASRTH
Description: The assay was conducted to evaluate the elastase enzyme inhibition activity of compositions comprising dihydrokaempferol.
Neutrophil infiltration and neutrophil elastase are both increased in the skin in response to UV stress. […] Therefore, inhibition of this enzyme, particularly in combination with antioxidant activity, is effective in delaying wrinkle development and aiding in maintaining skin integrity. This assay is measures release of 4-nitroaniline from an Me-Suc-Ala-Ala-Pro-Val-pNA by human neutrophil elastase and can be quantified at 405 nm by comparing to solvent control.

macrophage cell lines = macrophage cell lines and skin; Venditti et al. 2013; Lee et al. 2013; cited from earlier work
PPAR-72 = conditions: stimulates glucose uptake; Zhang et al. 2011; cited from earlier work
[14] = Dihydrokaempferol stability at 70° C. in various solvents; format: physicochemical
Description: Table 2, provided below, provides stability data for compositions comprising dihydrokaempferol in various solvents, when stored at 70° C. for up to one (1) month.

[15] = Venditti et al. 2013; Liang et al. 2020; cited from earlier work; remark: listed apart in the source
IL-6 = experiment: Anti-inflammatory activity: IL-6 ELISA in LPS/Poly:IC stressed keratinocytes; format: cell-based, Human; conditions: for % Reduction vs Treated / IL-6: stimulated NHEK, 24 hours
Description: Normal Human Epidermal Keratinocytes (NHEK) were stressed with a cocktail of lipopolysaccharide (LPS) and Polyinosinic-polycytidylic acid sodium salt (Poly:IC), external aggressors capable of inducing an inflammatory response. Stressed cells were subsequently treated with test articles and incubated for 24 hours. Reduction in inflammatory markers was measured by ELISA and % reduction calculated relative to solvent control.

Elastin = experiment: Anti-aging: elastin ELISA in hDF; format: cell-based, Human
Description: Human dermal fibroblasts (hDF) were treated with test article of interest. Elastin was quantified by ELISA.

[16] = Isopropyl lauroyl sarcosinate, 1 month
[17] = Isopropyl lauroyl sarcosinate, 1 week

Solubility (% w/w) ([9]; Solvent: 1,2 Propanediol): 0.00 % w/w
Solubility (% w/w) ([9]; Solvent: 1,2 heptanediol): 5.00 % w/w
Solubility (% w/w) ([9]; Solvent: 3-methyl-1,3-butanediol): 0.00 % w/w
Solubility (% w/w) ([9]; Solvent: Butylene glycol): 5.00 % w/w
Solubility (% w/w) ([9]; Solvent: C9-12 Alkane): 0.00 % w/w
Solubility (% w/w) ([9]; Solvent: C15-19 Alkane): 0.00 % w/w
Solubility (% w/w) ([9]; Solvent: Capric/Caprylic Triglyceride): 0.00 % w/w
Solubility (% w/w) ([9]; Solvent: Di(propylene glycol) dibenzoate): 0.00 % w/w
Solubility (% w/w) ([9]; Solvent: Dimethyl Isosoribide): 20.00 % w/w
Solubility (% w/w) ([9]; Solvent: Ethoxydiglycol): 25.00 % w/w
Solubility (% w/w) ([9]; Solvent: Isoamyl Laurate): 0.00 % w/w
Solubility (% w/w) ([9]; Solvent: Isopentyldiol): 5.00 % w/w
Solubility (% w/w) ([9]; Solvent: Isopropyl Lauroyl sarcosinate): 10.00 % w/w
Solubility (% w/w) ([9]; Solvent: Isopropyl Myristate): 0.00 % w/w
Solubility (% w/w) ([9]; Solvent: Jojoba Oil): 0.00 % w/w
Solubility (% w/w) ([9]; Solvent: Neopentyl Glycol Dihexanoate): 0.00 % w/w
Solubility (% w/w) ([9]; Solvent: Oleyl Alcohol): 0.00 % w/w
Solubility (% w/w) ([9]; Solvent: Pentylene glycol): 5.00 % w/w
Solubility (% w/w) ([9]; Solvent: Phenylpropanol): 0.00 % w/w
Solubility (% w/w) ([9]; Solvent: Propanediol): 5.00 % w/w
Solubility (% w/w) ([9]; Solvent: Squalene): 0.00 % w/w
Solubility (% w/w) ([9]; Solvent: Sunflower Oil): 0.00 % w/w
Solubility (% w/w) ([9]; Solvent: Tri C12-13 alkyl citrate): 0.00 % w/w
Solubility (% w/w) ([9]; Solvent: Tributyl citrate): 0.00 % w/w
Solubility (% w/w) ([9]; Solvent: Tributyl-O-acetylcitrate): 0.00 % w/w
Solubility (% w/w) ([9]; Solvent: Triethyl Citrate): 0.00 % w/w
Solubility (% w/w) ([9]; Solvent: Triethyl-O-acetylcitrate): 0.00 % w/w
Solubility (% w/w) ([9]; Solvent: Triisostearin): 0.00 % w/w
Solubility in words ([9]; in Helianthus Annuus (Sunflower) Seed Oil): insoluble
Solubility in words ([9]; in a number of other commonly used solvents): minimally soluble
Solubility in words ([9]; in capric/caprylic triglyceride): minimally soluble
Solubility in words ([9]; in dimethyl isosorbide, ethoxydiglycol, glycol, isopropyl lauroyl sarcosinate, pentylene glycol, 1,2 hexanediol, propanediol, butylene glycol, phenylpropanol, isopentyldiol, 1,2 heptanediol): soluble
Solubility in words ([9]; in isopropyl myristate): minimally soluble
Solubility in words ([9]; in oil): poorly soluble or insoluble
Solubility in words ([9]; in water): poorly soluble or insoluble
IC50 glycation inhibition (glycation; calculated): 0.016 % w/w
IC50 antioxidant activity ([10]; ABTS, aqueous solvent system, calculated): 0.0143 % w/w
IC50 antioxidant activity ([11]; DPPH, organic solvent system, calculated): 0.05 % w/w
Lowest concentration inhibiting elastase enzyme activity [13]: 0.1 % w/w
inhibition at 0.02 % strength ([13]; 0.020 % w/w): 0%
inhibition at 0.1 % strength ([13]; 0.100 % w/w): 29.6%
inhibition at 0.5 % strength ([13]; 0.500 % w/w): 81.5%
IC50 elastase enzyme inhibition ([13]; calculated): 0.13 % w/w
% remaining ([14]; Dimethyl isosorbide, 1 month): 91%
Concentration (% w/w) 1 month ([14]; Dimethyl isosorbide, 1 month): 6.04 % w/w
% remaining ([14]; Dimethyl isosorbide, 1 week): 95%
Concentration (% w/w) 1 week ([14]; Dimethyl isosorbide, 1 week): 6.33 % w/w
Concentration (% w/w) Initial ([14]; Dimethyl isosorbide): 6.66 % w/w
% remaining ([14]; Ethoxydiglycol, 1 month): 84%
Concentration (% w/w) 1 month ([14]; Ethoxydiglycol, 1 month): 6.54 % w/w
% remaining ([14]; Ethoxydiglycol, 1 week): 94%
Concentration (% w/w) 1 week ([14]; Ethoxydiglycol, 1 week): 7.27 % w/w
Concentration (% w/w) Initial ([14]; Ethoxydiglycol): 7.74 % w/w
% remaining [14, 16]: 92%
Concentration (% w/w) 1 month [14, 16]: 7.71 % w/w
% remaining [14, 17]: 97%
Concentration (% w/w) 1 week [14, 17]: 8.14 % w/w
Concentration (% w/w) Initial ([14]; Isopropyl lauroyl sarcosinate): 8.40 % w/w
Structure (SMILES): O=C1c2c(O)cc(O)cc2O[C@H](c2ccc(O)cc2)[C@H]1O [dihydrokaempferol]
Closure Rate 24 hr ([1]; 24 hr): 4.17
Closure Rate 48 hr ([1]; 48 hr): 9.40
% Total Population (Loricrin): 19.3%
% Total Population (Filaggrin): 42.2%
Function as antioxidant [2]: antioxidant
Log2 Fold Change (Interleukin 6 (IL6)): −5.54
Log2 Fold Change (Interleukin 24 (IL24)): −2.01
Log2 Fold Change [3]: −3.39
Log2 Fold Change [4]: 1.82
Log2 Fold Change [5]: 2.32
Log2 Fold Change [6]: 2.19
Log2 Fold Change [7]: −1.91
Log2 Fold Change [8]: −4.19
Log2 Fold Change (Thrombospondin 4 (THBS4)): 3.30
Effect on Sirtuin-1 (Sirtuin-1): upregulates
Lowest concentration inhibiting glycation (glycation): 0.004 % w/w
% Glycation Inhibition (glycation; 0.004 % w/w): 25.05%
% Glycation Inhibition (glycation; 0.011 % w/w): 42.23%
% Glycation Inhibition (glycation; 0.033 % w/w): 64.87%
% Glycation Inhibition (glycation; 0.100 % w/w): 82.42%
% Radical Inhibition ([10]; ABTS, 0.00625 % w/w): 32.55%
% Radical Inhibition ([10]; ABTS, 0.0125 % w/w): 42.49%
% Radical Inhibition ([10]; ABTS, 0.025 % w/w): 56.17%
Lowest concentration with antioxidant activity ([10]; aqueous systems): 0.00625 % w/w
% Radical Inhibition ([11]; DPPH, 0.016 % w/w): 16.54%
% Radical Inhibition ([11]; DPPH, 0.031 % w/w): 31.00%
% Radical Inhibition ([11]; DPPH, 0.063 % w/w): 61.12%
Lowest concentration with antioxidant activity ([11]; organic solvent systems): 0.016 % w/w
Treatment of severe acute pancreatitis [12]: treatment for severe acute pancreatitis
Anti-inflammatory activity (macrophage cell lines): anti-inflammatory activity
Effect on PPAR-72 expression (PPAR-72): increases
Function as anti-diabetic [15]: anti-diabetic
% Reduction vs Treated (IL-6; 0.001% DHK): 31.32%
IL-6 (IL-6; 0.001% DHK): 838.7 pg/mL
% Reduction vs Treated (IL-6; 0.002% DHK): 43.70%
IL-6 (IL-6; 0.002% DHK): 687.5 pg/mL
% Reduction vs Treated (IL-6; 0.003% DHK): 64.79%
IL-6 (IL-6; 0.003% DHK): 430.0 pg/mL
Reduction of inflammatory marker IL-6 (up to) (IL-6; in vitro, summary of Table 9): up to 64.79%
Elastin (Elastin; 0.001% DHK): 23.1 ng/mL
Elastin (Elastin; 0.003% DHK): 16.6 ng/mL
Elastin (Elastin; 0.005% DHK): 15.9 ng/mL
